Our source for the IC50 values is patent publication US11319315B2, “Cyclohexyl acid triazole azoles as LPA antagonists” (BRISTOL-MYERS SQUIBB COMPANY, priority 2017, dated 2022).

This test deals with T1, human LPA1 (Homo sapiens, UniProt Q92633).
T1 construct: expressed in transfected cells; host or cells: Chinese hamster ovary (CHO) cells
Briefly: LPA1 functional antagonist assay (LPA-induced calcium flux in CHO cells overexpressing human LPA1). The format is cell-based. The following applies: inhibition of calcium flux induced by 10 nM LPA, CHO cells overexpressing human LPA1; read-out: hLPA1 IC50. Here is the method: The effectiveness of compounds of the present invention as LPA1 inhibitors can be determined in an LPA1 functional antagonist assay as follows:
Chinese hamster ovary cells overexpressing human LPA1 were plated overnight (15,000 cells/well) in poly-D-lysine coated 384-well microplates (Greiner bio-one, Cat #781946) in DMEM/F12 medium (Gibco, Cat #11039). Following overnight culture, cells were loaded with calcium indicator dye (AAT Bioquest Inc, Cat #34601) for 30 minutes at 37° C. The cells were then equilibrated to room temperature for 30 minutes before the assay. Test compounds solubilized in DMSO were transferred to 384 well non-binding surface plates (Corning, Cat #3575) using the Labcyte Echo acoustic dispense and diluted with assay buffer [IX HBSS with calcium/magnesium (Gibco Cat #14025-092), 20 mM HEPES (Gibco Cat #15630-080) and 0.1% fatty acid free BSA (Sigma Cat #A9205)] to a final concentration of 0.5% DMSO. Diluted compounds were added to the cells by FDSS6000 (Hamamatsu) at final concentrations ranging from 0.08 nM to 5 μM. and were then incubated for 20 min at room temperature at which time LPA (Avanti Polar Lipids Cat #857130C) was added at final concentrations of 10 nM to stimulate the cells. The compound IC50 value was defined as the concentration of test compound which inhibited 50% of the calcium flux induced by LPA alone. IC50 values were determined by fitting data to a 4-parameter logistic equation (GraphPad Prism, San Diego Calif.).

T1 sequence (Q92633 whole entry): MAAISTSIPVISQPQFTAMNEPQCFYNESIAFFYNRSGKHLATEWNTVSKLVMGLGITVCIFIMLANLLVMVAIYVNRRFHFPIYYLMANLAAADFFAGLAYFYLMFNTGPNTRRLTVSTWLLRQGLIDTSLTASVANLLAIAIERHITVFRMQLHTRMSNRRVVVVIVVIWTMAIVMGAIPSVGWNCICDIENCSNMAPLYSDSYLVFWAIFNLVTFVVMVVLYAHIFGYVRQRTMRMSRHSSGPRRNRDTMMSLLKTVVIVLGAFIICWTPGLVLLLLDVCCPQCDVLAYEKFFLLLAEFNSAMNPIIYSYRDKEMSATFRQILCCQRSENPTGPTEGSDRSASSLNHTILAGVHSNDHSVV

For the compound `CCCc1nc(NCc2c(-c3ccc(O[C@H]4CCC[C@H](C(=O)O)C4)c(C)n3)nnn2C)no1` [Example 68], the IC50 was determined as 42 nM.

Take `Cc1nc(-c2nnn(C)c2CNc2noc(CCC(C)C)n2)ccc1O[C@H]1CCC[C@H](C(=O)O)C1` [Example 69]: the half-inhibitory concentration (IC50) stood at 15 nM.

For `Cc1nc(-c2nnn(C)c2CNc2noc(CC(C)C)n2)ccc1O[C@H]1CCC[C@H](C(=O)O)C1` [Example 71], the half-maximal inhibitory concentration (IC50) worked out at 33 nM.

`Cc1nc(-c2nnn(C)c2CNc2noc(CC3CCC3)n2)ccc1O[C@H]1CCC[C@H](C(=O)O)C1` [Example 72]: the half-inhibitory concentration (IC50) came out at 4 nM.

With `Cc1nc(-c2nnn(C)c2Cc2nnc(Cc3ccccc3)o2)ccc1O[C@H]1CCC[C@H](C(=O)O)C1` [Example 73, (1 S,3 S)-3-((6-(5-((5-benzyl-1,3,4-oxadiazol-2-yl)methyl)-1-methyl-1H-1,2,3-triazol-4-yl)-2-methylpyridin-3-yl)oxy)cyclohexane-1-carboxylic acid], the concentration for half-maximal inhibition (IC50) turned out to be 55 nM.

Turning to `CCCCc1nnc(Cc2c(-c3ccc(O[C@H]4CCC[C@H](C(=O)O)C4)c(C)n3)nnn2C)o1` [Example 74], the IC50 stood at 227 nM.

As to `Cc1nc(-c2nnn(C)c2Cc2nnc(C3CCCC3)o2)ccc1O[C@H]1CCC[C@H](C(=O)O)C1` [Example 75], the concentration for half-maximal inhibition (IC50) was found to be 289 nM.

In the case of `Cc1nc(-c2nnn(C)c2Cc2nnc(-c3ccccc3)o2)ccc1O[C@H]1CCC[C@H](C(=O)O)C1` [Example 76], the 50% inhibitory concentration (IC50) was determined as 290 nM.

As to `Cc1nc(-c2nnn(C)c2Cc2nnc(Cc3ccc(F)cc3)o2)ccc1O[C@H]1CCC[C@H](C(=O)O)C1` [Example 77], the half-inhibitory concentration (IC50) is 260 nM.

For the compound `Cc1nc(-c2nnn(C)c2C(O)c2cn(Cc3ccccc3)nn2)ccc1O[C@H]1CCC[C@H](C(=O)O)C1` (some centres unmarked) [Example 78, (1 S,3 S)-3-((6-(5-((1-benzyl-1H-1,2,3-triazol-4-yl)(hydroxy)methyl)-1-methyl-1H-1,2,3-triazol-4-yl)-2-methylpyridin-3-yl)oxy)cyclohexane-1-carboxylic acid], the IC50 amounted to 88 nM.

With `CCCCc1cn(Cc2c(-c3ccc(O[C@H]4CCC[C@H](C(=O)O)C4)c(C)n3)nnn2C)nn1` [Example 79, (1 S,3 S)-3-((6-(5-((4-butyl-1H-1,2,3-triazol-1-yl)methyl)-1-methyl-1H-1,2,3-triazol-4-yl)-2-methylpyridin-3-yl)oxy)cyclohexane-1-carboxylic acid], the IC50 is 44 nM.

`Cc1nc(-c2nnn(C)c2Cn2cc(Cc3ccccc3)cn2)ccc1O[C@H]1CCC[C@H](C(=O)O)C1` [Example 80, (1 S,3 S)-3-((6-(5-((4-benzyl-1H-pyrazol-1-yl)methyl)-1-methyl-1H-1,2,3-triazol-4-yl)-2-methylpyridin-3-yl)oxy)cyclohexane-1-carboxylic acid]: the half-maximal inhibitory concentration (IC50) was determined as 15 nM.

`Cc1nc(-c2nnn(C)c2Cn2cc(Cc3ccccc3)nn2)ccc1O[C@H]1CCC[C@H](C(=O)O)C1` [Example 81]: the 50% inhibitory concentration (IC50) is 37 nM.

With `Cc1nc(-c2nnn(C)c2Cn2cc(C(C)C)nn2)ccc1O[C@H]1CCC[C@H](C(=O)O)C1` [Example 82], the 50% inhibitory concentration (IC50) amounted to 821 nM.

For the compound `Cc1nc(-c2nnn(C)c2Cn2cc(COc3ccccc3)nn2)ccc1O[C@H]1CCC[C@H](C(=O)O)C1` [Example 83], the 50% inhibitory concentration (IC50) amounted to 135 nM.

As for `Cc1nc(-c2nnn(C)c2Cn2nncc2COc2ccccc2)ccc1O[C@H]1CCC[C@H](C(=O)O)C1` [Example 84], the IC50 amounted to 172 nM.

In the case of `Cc1nc(-c2nnn(C)c2Cn2cc(C(=O)c3ccccc3)nn2)ccc1O[C@H]1CCC[C@H](C(=O)O)C1` [Example 85], the half-inhibitory concentration (IC50) was found to be 241 nM.

Turning to `CCCc1cn(Cc2c(-c3ccc(O[C@H]4CCC[C@H](C(=O)O)C4)c(C)n3)nnn2C)nn1` [Example 86], the IC50 was 187 nM.

`Cc1nc(-c2nnn(C)c2Cn2cc(C(O)c3ccccc3)nn2)ccc1O[C@H]1CCC[C@H](C(=O)O)C1` (some centres unmarked) [Example 87]: the IC50 came to 363 nM.

For the compound `Cc1nc(-c2nnn(C)c2Cn2cc(COC(C)(C)C)nn2)ccc1O[C@H]1CCC[C@H](C(=O)O)C1` [Example 88], the half-inhibitory concentration (IC50) came to 2930 nM.

One may read the IC50 as the point on the concentration scale where inhibition reaches its midpoint.
